Data taken from patent publication US20090041806A1, “USE OF PRODRUGS OF GABA ANALOGS, ANTISPASTICITY AGENTS, AND PRODRUGS OF GABA B RECEPTOR AGONISTS FOR TREATING SPASTICITY” (XenoPort, Inc., priority 2007, published 2009).

Experiments:
[1] = Randomized, crossover, fed/fasted single-dose pharmacokinetic study of oral sustained release tablets of compound (7) in healthy adult subjects; settings: for AUC of compound (7) in blood as percent of the corresponding AUC of gabapentin in blood / maximum intact prodrug concentration as percent of the corresponding peak gabapentin concentration: oral tablets
Method: A randomized, crossover, fed/fasted single-dose study of the safety, tolerability, and pharmacokinetics of oral administration of 1-{[α-isobutanoyloxyethoxy)carbonyl]aminomethyl}-1-cyclohexane acetic acid (7) in healthy adult subjects was conducted. The oral sustained release dosage form of Example 4 was used in this study. The study was designed to evaluate the performance of this formulation in humans in comparison with the commercial gabapentin capsule formulation (Neurontin®, Pfizer). Twelve healthy adult volunteers (7 males and 5 females) participated in the study. Mean body weight was 75.6 kg. All subjects received two different treatments in a random order with a one-week washout between treatments. The two treatments were: a single oral dose of Example 4 tablets (2×600 mg) after an overnight fast; and a single oral dose of Example 4 tablets (2×600 mg) after a high fat breakfast.
Blood and plasma samples were collected from all subjects prior to dosing, and at 0.5, 1, 1.5, 2, 3, 4, 6, 8, 12, 18, 24, and 36 hours after dosing. Urine samples were collected from all subjects prior to dosing, and complete urine output was obtained at the 0-4 h, 4-8 h, 8-12 h, 12-18 h, 18-24 h, and 24-36 h intervals after dosing. Blood samples were quenched immediately with methanol and stored frozen at […] Sample aliquots were prepared for analysis of gabapentin and compound (7) using sensitive and specific LC/MS/MS methods.

[2] = Uptake of gabapentin following intracolonic administration of gabapentin or gabapentin prodrugs in rats; format: in vivo; settings: rat, dose equivalent to 25 mg gabapentin per kg
Method: Sustained release oral dosage forms, which release drug slowly over periods of 6-24 hours, generally release a significant proportion of the dose within the colon. […] This experiment was conducted to assess the suitability of gabapentin prodrugs for use in oral sustained release dosage forms.
Rats were obtained commercially and were pre-cannulated in the both the ascending colon and the jugular vein. Animals were conscious at the time of the experiment. All animals were fasted overnight and until 4 hours post-dosing. […]
were administered as a solution (in water or PEG 400) directly into the colon via the cannula at a dose equivalent to 25 mg of gabapentin per kg. […] Blood samples were analyzed as described below. […]
were used. […] The peaks were integrated using Analyst 1.1 quantitation software.

[3] = oral baclofen; cited from earlier work
[4] = oral; 2 mg t.i.d. R-baclofen equivalent to 10 mg t.i.d. racemic baclofen; cited from earlier work
[5] = cited from earlier work
[6] = Uptake of R-baclofen following oral administration of R-baclofen prodrugs to cynomolgus monkeys; settings: cynomolgus monkey, in vivo
Method: (5 mg baclofen-eq/kg) were administered by oral gavage to groups of four male cynomolgus monkeys as either an aqueous solution or suspension in 0.5% methylcellulose/0.1% Tween-80 respectively. […] The oral bioavailability of both prodrugs: • (sodium 4-{[(1S)-isobutanoyloxyisobutoxy]carbonylamino}-(3R)-(4-chlorophenyl)-butanoate; and • 4-{[(1S)-isobutanoyloxyisobutoxy]carbonylamino}-(3R)-(4-chlorophenyl)-butanoic acid;

SMILES: CC(OC(=O)NCC1(CC(=O)O)CCCCC1)OC(=O)C(C)C (stereo not drawn) [compound (7), 1-{[(α-isobutanoyloxyethoxy)carbonyl]aminomethyl}-1-cyclohexane acetic acid]
- maximum concentration of intact compound (7) in blood ([1]; human, in vivo, po): 0.040 µg/mL
- AUC of compound (7) in blood as percent of the corresponding AUC of gabapentin in blood ([1]; fasted subjects): 0.3%
- maximum intact prodrug concentration as percent of the corresponding peak gabapentin concentration ([1]; fasted subjects): approximately 1.0%
- AUC of compound (7) in blood as percent of the corresponding AUC of gabapentin in blood ([1]; fed subjects): less than 0.1%
- maximum intact prodrug concentration as percent of the corresponding peak gabapentin concentration ([1]; fed subjects): approximately 0.3%
- area under the gabapentin plasma concentration vs. time curve (AUC) relative to colonic administration of gabapentin itself [2]: greater than 10 fold
- maximum plasma concentration of gabapentin (Cmax) relative to colonic administration of gabapentin itself [2]: greater than 10 fold

SMILES: NCC(CC(=O)O)c1ccc(Cl)cc1 (racemic) [Baclofen, (±)-4-amino-3-(4-chlorophenyl)butanoic acid]
- elimination half-life [3]: 3 to 4 h

SMILES: NC[C@H](CC(=O)O)c1ccc(Cl)cc1 [R-baclofen, R-(−)-baclofen]
- potency of orally administered R-baclofen relative to orally administered racemic baclofen [4]: about 5 fold

SMILES: NCC1(CC(=O)O)CCCCC1 [gabapentin]
- typical Tmax of immediate release gabapentin [5]: 2 to 4 h

SMILES: CC(C)C(=O)O[C@@H](OC(=O)NC[C@H](CC(=O)[O-])c1ccc(Cl)cc1)C(C)C.[Na+] [sodium 4-{[(1S)-isobutanoyloxyisobutoxy]carbonylamino}-(3R)-(4-chlorophenyl)-butanoate]
- oral bioavailability as R-baclofen [6]: greater than 80%
